From US20230138310A1 (priority 2020, published 2023)
Values joined by “and” are separate entries in the source; they are usually repeats but may differ in a detail not shown here. Equal values may be shown once. Read-outs that look alike come from different tables or passages of the source.

Columns and labels:
[1] = test system: 2019-nCov; settings: positive control, stated as existing value; read-out: EC50 of existing positive compound CQ against 2019-nCoV virus replication; cited from earlier work
[2] = molecular target: T1, 3CL protease of 2019 Novel Coronavirus (2019-nCoV 3CLpro) (Severe acute respiratory syndrome coronavirus 2, UniProt P0DTD1); test: FRET inhibitory activity against 3CL protease of 2019 Novel Coronavirus; type: biochemical; settings: for inhibition at 1 µM: read-out: Inhibition rate (1 μM), 3CL protease of 2019 Novel Coronavirus
T1 construct: the 3CL protease of 2019 Novel Coronavirus (2019-nCoV 3CL^pro)

[3] = Half-toxic concentration (CC50) with CCK8 kit; type: cell-based; settings: African green monkey, Vero E6 cells, in duplicate
Description: In this example, the half-toxic concentrations (CC50) of some compounds of the present invention to Vero E6 cells were determined with CCK8 kit in duplicate.

[4] = test system: 2019-nCov; test: Inhibitory activity against the replication of 2019-nCov (cytopathic effect, MTS); type: cell-based; settings: for anti-virus activity against 2019-nCoV (in words): viral level, compared with positive control CQ; for EC50: Severe acute respiratory syndrome coronavirus 2, gradient concentrations, CQ as positive control, read-out: EC50 against 2019-nCoV virus replication
[5] = FRET, tables 1A/1B, read-out: IC50 (nM) of SARS-CoV-2 3 CL protease
[6] = read-out: IC50 against 2019-nCoV 3CL protease

Compound | IC50 [2, 5] [nM] | inhibition at 1 µM ([2]; compound at 1 μM) [%] | IC50 [2, 6] | inhibition at 1 µM [2] [%] | other results
CCN(CC)CCCC(C)Nc1ccnc2cc(Cl)ccc12 (stereo not shown) [CQ] | – | – | – | – | EC50 [1]: 1130 nM
CC(C)[C@H](NC(=O)c1cc2ccccc2[nH]1)C(=O)N[C@@H](CC1CCCCC1)C(=O)N[C@H](C=O)C[C@@H]1CCNC1=O [Compound 5, N-{(S)-3-methyl-1-carbonyl-1-{{(S)-1-carbonyl-1-{{(S)-1-carbonyl-3-[(S)-2-carbonylpyrrolidin-3-yl]propan-2-yl}amino}-3-cyclohexylpropan-2-yl}amino}butan-2-yl}indole-2-carboxamide] | 33.6 ± 3.45 | 95.7 | < 100 nM | – | –
Cc1cc(C(=O)N[C@H](C(=O)N[C@@H](CC2CCCCC2)C(=O)N[C@H](C=O)C[C@@H]2CCNC2=O)C(C)C)no1 [Compound 6, 5-Methyl-N-{(S)-3-methyl-1-carbonyl-1-{{(S)-1-carbonyl-1-{{(S)-1-carbonyl-3-[(S)-2-carbonylpyrrolidin-3-yl]propan-2-yl}amino}-3-cyclohexylpropan-2-yl}amino}butan-2-yl}isoxazole-3-carboxamide] | 48.5 ± 3.17 | 95.8 | < 100 nM | – | –
CC(C)[C@H](NC(=O)c1cc2ccccc2[nH]1)C(=O)N[C@@H](Cc1ccccc1)C(=O)N[C@H](C=O)C[C@@H]1CCNC1=O [Compound 9, N-{(S)-3-methyl-1-carbonyl-1-{{(S)-1-carbonyl-1-{{(S)-1-carbonyl-3-[(S)-2-carbonylpyrrolidin-3-yl]propan-2-yl}amino}-3-phenylpropan-2-yl}amino}butan-2-yl}indole-2-carboxamide] | 68.1 ± 12.5 | 95.8 | < 100 nM | – | –
CC(C)[C@H](NC(=O)c1cc2ccccc2o1)C(=O)N[C@@H](Cc1ccccc1)C(=O)N[C@H](C=O)C[C@@H]1CCNC1=O [Compound 10, N-{(S)-3-methyl-1-carbonyl-1-{{(S)-1-carbonyl-1-{{(S)-1-carbonyl-3-[(S)-2-carbonylpyrrolidin-3-yl]propan-2-yl}amino}-3-phenylpropan-2-yl}amino}butan-2-yl}benzofuran-2-carboxamide] | 67.5 ± 13.9 | 88.2 | < 100 nM | – | –
CC(C)[C@H](NC(=O)c1ccc2ccccc2n1)C(=O)N[C@@H](Cc1ccccc1)C(=O)N[C@H](C=O)C[C@@H]1CCNC1=O [Compound 11, N-{(S)-3-methyl-1-carbonyl-1-{{(S)-1-carbonyl-1-{{(S)-1-carbonyl-3-[(S)-2-carbonylpyrrolidin-3-yl]propan-2-yl}amino}-3-phenylpropan-2-yl}amino}butan-2-yl}quinoline-2-carboxamide] | 179 ± 29.4 | 89.7 | – | – | –
O=C[C@H](C[C@@H]1CCNC1=O)NC(=O)[C@H](Cc1ccc(F)c(F)c1)NC(=O)c1cc2ccccc2[nH]1 [Compound 12] | 87 ± 8 | 103 | < 100 nM | – | –
CC(C)[C@H](NC(=O)c1ccc2ccccc2n1)C(=O)N[C@@H](CC1CCCCC1)C(=O)N[C@H](C=O)C[C@@H]1CCNC1=O [Compound 16, N-{(S)-3-methyl-1-carbonyl-1-{{(S)-1-carbonyl-1-{{(S)-1-carbonyl-3-[(S)-2-carbonylpyrrolidin-3-yl]propan-2-yl}amino}-3-cyclohexylpropan-2-yl}amino}butan-2-yl}quinoline-2-carboxamide] | 74 | 89.1 | < 100 nM and 73.5 nM | – | CC50 [3]: > 100000 nM; anti-virus activity against 2019-nCoV (in words) [4]: excellent anti-virus activity
CC(C)[C@H](NC(=O)c1cc2ccccc2o1)C(=O)N[C@@H](CC1CCCCC1)C(=O)N[C@H](C=O)C[C@@H]1CCNC1=O [Compound 17, N-{(S)-3-methyl-1-carbonyl-1-{{(S)-1-carbonyl-1-{{(S)-1-carbonyl-3-[(S)-2-carbonylpyrrolidin-3-yl]propan-2-yl}amino}-3-cyclohexylpropan-2-yl}amino}butan-2-yl}benzofuran-2-carboxamide] | 61 ± 12.5 | 106 | < 100 nM | – | –
CC(C)[C@H](NC(=O)c1cc2cccc(Br)c2o1)C(=O)N[C@@H](CC1CCCCC1)C(=O)N[C@H](C=O)C[C@@H]1CCNC1=O [Compound 18, 7-Bromo-N-{(S)-3-methyl-1-carbonyl-1-{{(S)-1-carbonyl-1-{{(S)-1-carbonyl-3-[(S)-2-carbonylpyrrolidin-3-yl]propan-2-yl}amino}-3-cyclohexylpropan-2-yl}amino}butan-2-yl}benzofuran-2-carboxamide] | 238 ± 18.7 | 97.8 | – | – | –
Cc1cc2ccccc2nc1C(=O)N[C@H](C(=O)N[C@@H](CC1CCCCC1)C(=O)N[C@H](C=O)C[C@@H]1CCNC1=O)C(C)C [Compound 19, 3-Methyl-N-{(S)-3-methyl-1-carbonyl-1-{{(S)-1-carbonyl-1-{{(S)-1-carbonyl-3-[(S)-2-carbonylpyrrolidin-3-yl]propan-2-yl}amino}-3-cyclohexylpropan-2-yl}amino}butan-2-yl}quinoline-2-carboxamide] | 62.7 ± 8.97 | 98.3 | < 100 nM | – | –
CC(C)[C@H](NC(=O)c1cc2cc(Cl)ccc2o1)C(=O)N[C@@H](CC1CCCCC1)C(=O)N[C@H](C=O)C[C@@H]1CCNC1=O [Compound 20, 5-Chloro-N-{(S)-3-methyl-1-carbonyl-1-{{(S)-1-carbonyl-1-{{(S)-1-carbonyl-3-[(S)-2-carbonylpyrrolidin-3-yl]propan-2-yl}amino}-3-cyclohexylpropan-2-yl}amino}butan-2-yl}benzofuran-2-carboxamide] | 150 ± 9.55 | 101 | – | – | –
CC(C)[C@H](NC(=O)c1cc2ccccc2s1)C(=O)N[C@@H](CC1CCCCC1)C(=O)N[C@H](C=O)C[C@@H]1CCNC1=O [Compound 24] | 132 ± 14.7 | 93.3 | – | – | –
CC(C)[C@H](NC(=O)c1cc2ccccc2[nH]1)C(=O)N[C@@H](CC1CCC(F)C(F)C1)C(=O)N[C@H](C=O)C[C@@H]1CCNC1=O (stereo partly shown) [Compound 35] | – | – | – | 94.3 | –
O=C[C@H](C[C@@H]1CCNC1=O)NC(=O)[C@H](Cc1ccccc1)NC(=O)c1cc2cc(F)ccc2[nH]1 [Compound 45] | – | – | – | 85.2 | –
O=C[C@H](C[C@@H]1CCNC1=O)NC(=O)[C@H](Cc1ccccc1)NC(=O)c1cc2ccc(F)cc2[nH]1 [Compound 46] | – | – | – | 89.3 | –
O=C[C@H](C[C@@H]1CCNC1=O)NC(=O)[C@H](CC1CCCCC1)NC(=O)c1cc2c(Cl)cc(Cl)cc2[nH]1 [Compound 47] | – | – | – | 90.4 | –
O=C[C@H](C[C@@H]1CCNC1=O)NC(=O)[C@H](CC1CCCCC1)NC(=O)c1cc2ccccc2[nH]1 [Compound 48] | – | – | – | – | CC50 [3]: > 100000 nM; EC50 [4]: 290 nM; anti-virus activity against 2019-nCoV (in words) [4]: better than that of the positive control CQ; anti-virus activity against 2019-nCoV (in words) ([4]; listed as 2234): excellent anti-virus activity
Cn1c(C(=O)N[C@@H](CC2CCCCC2)C(=O)N[C@H](C=O)C[C@@H]2CCNC2=O)cc2ccccc21 [Compound 49] | – | – | – | 91.2 | –
COc1ccc2[nH]c(C(=O)N[C@@H](CC3CCCCC3)C(=O)N[C@H](C=O)C[C@@H]3CCNC3=O)cc2c1 [Compound 50] | – | – | – | 89.1 | –
O=C[C@H](C[C@@H]1CCNC1=O)NC(=O)[C@H](CC1CCCCC1)NC(=O)c1cc2c(F)cccc2[nH]1 [Compound 51] | – | – | – | 84.6 | –
O=C[C@H](C[C@@H]1CCNC1=O)NC(=O)[C@H](CC1CCCCC1)NC(=O)c1cc2ccccc2s1 [Compound 56] | – | – | – | 81.3 | –
O=C[C@H](C[C@@H]1CCNC1=O)NC(=O)[C@H](CC1CCCCC1)NC(=O)c1nc2ccccc2[nH]1 [Compound 57] | – | – | – | 92.3 | –
O=C[C@H](C[C@@H]1CCNC1=O)NC(=O)[C@H](CC1CCCCC1)NC(=O)c1cnc2ccccc2n1 [Compound 59] | – | – | – | 86.7 | –
O=C[C@H](C[C@@H]1CCNC1=O)NC(=O)[C@H](Cc1cccc(F)c1)NC(=O)c1cc2ccccc2[nH]1 [Compound 81] | – | – | < 100 nM | – | CC50 [3]: > 100000 nM; EC50 [4]: 330 ± 90 nM; anti-virus activity against 2019-nCoV (in words) [4]: better than that of the positive control CQ; anti-virus activity against 2019-nCoV (in words) ([4]; listed as 2259): excellent anti-virus activity
O=C[C@H](C[C@@H]1CCNC1=O)NC(=O)[C@H](Cc1ccc(F)cc1)NC(=O)c1cc2ccccc2[nH]1 [Compound 82] | 103 ± 13 | 101 | – | – | –
O=C[C@H](C[C@@H]1CCNC1=O)NC(=O)[C@H](Cc1cccc(F)c1)NC(=O)c1cc2c(F)ccc(F)c2[nH]1 [Compound 83, 4,7-Difluoron-{(S)-1-carbonyl-1-{{(S)-1-carbonyl-3-[(S)-2-carbonylpyrrolidin-3-yl]propan-2-yl}amino}-3-3fluorophenylpropan-2-yl}-1H-indole-2-carboxamide] | 113 ± 9 | 97.8 | – | – | –
